Measurements taken from patent publication USRE47475E1, “Selective agents for pain suppression” (WiSys Technology Foundation, Inc., priority 2002, dated 2019).
Like-named read-outs stand apart in the source and are kept apart here.

Columns and labels:
rhesus monkeys = experiment: conflict model of anxiolytic activity which also measures sedation; assay type: in vivo; conditions: for anxiolytic effect (conflict model): intravenously in propylene glycol/water
Experimental: The data in FIGS. 21A-21F reflect the ability of the compounds or drugs to exert an anxioyic effect in rhesus monkeys (J. Rowlett, J. M. Cook et al., unpublished results) when given intravenously in propylene glycol/water solution. This is the conflict model of anxiolytic activity which also measures sedation. […] In FIG. 21B, SH-053-2′F (JY-XHE-053) is anxiolytic at a dose of greater than 0.13 mg/kg, but exerts only some slight sedation at doses greater than 1.2 mg/kg (responses decrease). In FIG. 21C it is clear the S-enantiomer of SH-053-2′F—S—CH3 is anxiolytic with no sedation up to 10-18 mg/kg, which is the highest dose tested.

[1] = tested on: neuropathic pain after CCI of the sciatic nerve; experiment: chronic constriction injury (CCI) model, mechanical sensitization (von Frey filaments); assay type: in vivo, mice; conditions: for analgesic effects in the chronic constriction injury model of neuropathic pain: mouse, in vivo
Experimental: In addition, the pro- or antinociceptive effects of the compounds of the present invention are analyzed in the chronic constriction injury (CCI) model. The GABAA receptor subunit selective test compounds of the present invention are analysed in the CCI model in 7-8-week-old C57BL/6 mice. See Bennett, G. J. & Xie, Y. K. A peripheral mononeuropathy in rat that produces disorders of pain sensation like those seen in man. […] Seven to eight week old mice are anesthetized with isofluran. Unilateral constriction injury of the left sciatic nerve just proximal to the trifurcation is performed with three loose ligatures. In sham-operated animals the sciatic nerve is exposed and the connective tissue is freed, but no ligatures are applied. […] Heat hyperalgesia, cold allodynia and mechanical sensitization are assessed 7-9 days after surgery. Mechanical sensitivity is assessed with electronic von Frey filaments (IITC).
Pain studies—Neuropathic pain: HZ166 and gabapentin were analyzed in the chronic constriction injury (CCI) model. Unilateral constriction injury of the left sciatic nerve just proximal to the trifurcation was performed as described previously (Bennett and Xie, 1988). Anesthesia was induced and maintained by 2% isoflurane, combined with oxygen (30%). The sciatic nerve was exposed at the mid-thigh level proximal to the sciatic trifurcation by blunt dissection through the biceps femoris muscle. […] of nerve were freed of adhering tissue and three chromic gut ligatures (4/0) (Ethicon) were loosely put around the nerve with about 1 mm spacing. The ligatures were tied until they elicited a brief twitch in the hindlimb. The surgical wound was closed in layers. Heat hyperalgesia and mechanical sensitization were assessed 7-16 days after surgery.
Pain Studies—Mechanical sensitization: Mechanical sensitivity was assessed with dynamic von Frey filaments (IITC, Woodland Hills, Calif.). 4-5 measurements were made for each time point and animal and averaged. Measurements of paw withdrawal thresholds of the injured paw and of the contralateral paw were made alternately.
Statistical Analysis: For all different doses and vehicle, baseline paw withdrawal thresholds/latencies on day 7 after nerve ligation or on day 2 after zymosan A injection were subtracted from all later withdrawal thresholds and the area under the curve (AUC) was calculated. Drug effects were expressed as percent maximum possible effect (MPE) calculated from comparisons of paw withdrawal latencies or thresholds obtained prior to surgery or inflammation and before and after drug treatment. […] Unless otherwise indicated, statistical comparisons were made with one-way analysis of variance (ANOVA) followed by Scheffe's post hoc test. P values<0.05 were considered significant.

[2] = biological target: T1, GABAA/α5 (α5β3γ2 GABAA receptor) (Homo sapiens, UniProt P18507+P31644); experiment: competitive binding assay with [3H]flunitrazepam
T1 construct: expressed in transfected cells
Experimental: (§1) Membranes were harvested with a Brandel cell harvester followed by three ice-cold washes onto polyethyleneimine-pretreated (0.3%) Whatman GF/C filters. Filters were dried overnight and then soaked in Ecoscint, a liquid scintillation cocktail (National Diagnostics; Atlanta, Ga.). Bound radioactivity was quantified by liquid scintillation counting. Membrane protein concentrations were determined using an assay kit from Bio-Rad (Hercules, Calif.) with bovine serum albumin as the standard.
as §1, with “The GABAA subunit selectivity of several compounds prepared as described above were determined using competitive binding assays. […] Membranes” for “Membranes”

[3] = tested on: Formalin Pain (mouse, i.p.); experiment: T22 formalin test (chemically induced pain); assay type: in vivo
Experimental: This elicits a distinct bi-phasic behavioral profile in response to the formalin injection characterized by licking of the affected paw, and the number of licks is measured as a proxy for perceived pain. The first (acute) phase is thought to correspond to the direct stimulation of peripheral fibers while the second (inflammatory) phase is caused by the release of inflammatory mediators from the damaged tissue and nerve endings. Thus, this model is ideally suited for efficacy of an investigational AED against the acute and chronic hyper-responsive neuronal discharges following activation of peripheral nerve fibers.
The results of the formalin test are given both as raw data (“Response”) and in an aggregate, analyzed form (“Analysis”). In the Response section, each Trial involves sixteen animals, eight controls given an i.p. injection of vehicle and eight given the compound at a specified dose. Thus, for multiple doses of the compound, there will also be multiple control groups. The data recorded for each animal is the amount of time(s) spent licking the affected hind paw in a two minute period. These two minute periods occur at five minute intervals and continue for 45 minutes. […] From this plot, we can then determine the area under the curve (AUC) for each animal during both the acute and inflammatory stages. The AUC for each phase is shown in the analysis section of the data sheet for both control and drug-treated animals The AUC for each drug-treated animal is compared to the average result from the control group, yielding an average percent of control (reported with the SEM and p value).

[4] = biological target: T2, GABAA/α1 (α1β3γ2 GABAA receptor) (Homo sapiens, UniProt P14867+P18507); experiment: competitive binding assay with [3H]flunitrazepam
T2 construct: expressed in transfected cells
Experimental: as §1
as §1, with “The GABAA subunit selectivity of several compounds prepared as described above were determined using competitive binding assays. […] Membranes” for “Membranes”

[5] = biological target: T3, GABAA/α3 (α3β3γ2 GABAA receptor) (Homo sapiens, UniProt P18507+P34903); experiment: competitive binding assay with [3H]flunitrazepam
T3 construct: expressed in transfected cells
Experimental: as §1
as §1, with “The GABAA subunit selectivity of several compounds prepared as described above were determined using competitive binding assays. […] Membranes” for “Membranes”

[6] = biological target: T4, GABAA/α2 (α2β3γ2 GABAA receptor) (Homo sapiens, UniProt P18507+P47869); experiment: competitive binding assay with [3H]flunitrazepam
T4 construct: expressed in transfected cells
Experimental: as §1
as §1, with “The GABAA subunit selectivity of several compounds prepared as described above were determined using competitive binding assays. […] Membranes” for “Membranes”

[7] = tested on: Sciatic Ligation neuropathic pain; experiment: T23 partial ligation of the sciatic nerve (mechanical allodynia); assay type: in vivo, rats; conditions: dose 35.5 (HZ-166), 18 (JY-XHE-053), 1 (XLI-JY-DMH) mg/kg; TPE 2 hr
Experimental: Neuropathic pain. The pro- or antinociceptive effects of the compounds of the present invention are analyzed in two manners. […] Sterile technique will be used throughout the surgery. The upper thigh will be shaved and wiped off with ethanol and betadine. A small incision will then be made in the skin. The underlying muscle of the upper thigh will be separated and the sciatic nerve exposed. The nerve is separated from the surrounding connective tissue and slightly elevated by a pair of fine, curved forceps. Approximately ⅓ to ½ of the nerve is tied off by passing a needle (7.0) and nylon suture through the nerve. The muscle and skin incision are closed off separately with 5.0 suture and the animals kept warm until they have recovered from the anesthesia. This procedure is routinely done on the right side (ipsilateral) while a sham surgery is performed on the left hind leg (contralateral). The latter involves a similar procedure with the exception that the sciatic nerve on this side is only exposed. The rats will be closely monitored daily for the development of infection or untoward effects of the surgery in which case the animals will be immediately euthanized
After an appropriate time for recovery (7 days) the animals will be tested for the development of mechanical allodynia (abnormal response to a non-noxious stimulus). The animals are each put in a bottomless plexiglass box placed on a wire mesh (¼″) platform. After 30-60 minutes in which to acclimate, a baseline mechanical sensitivity is determined. This procedure is done by applying a series of calibrated Von Frey fibres perpendicularly to the plantar surface of each hind paw and holding it there for about 6 secs with enough force to slightly bend the fibre. After a positive response (withdrawal of the foot) is noted a weaker fibre is applied. This is repeated until a 50% threshold for withdrawal can be determined
The allodynic threshold is then redetermined after intraperitoneal administration of an investigational AED. Testing will be conducted at the time-to-peak effect of the AED as determined in the acute seizure model.

CN1C(=O)CN=C(c2ccccn2)c2cc(C#C[Si](C)(C)C)ccc21
melting point: 194 to 195 °C

C[Si](C)(C)C#Cc1ccc2c(c1)C(c1ccccn1)=NCC(=O)N2
melting point: 242 to 243 °C

C#Cc1ccc2c(c1)C(c1ccccn1)=NCC(=O)N2C
melting point: 190 to 191 °C

C#Cc1ccc2c(c1)C(c1ccccc1)=NCc1c(C(=O)OCC)ncn1-2 [XHE-II-053, Ethyl 8-acetylenyl-6-phenyl-4H-benzo[f]imidazo[1,5-a][1,4]diazepine-3-carboxylate]
sedative activity (conflict model) (rhesus monkeys; intravenously): no sedative activity
anxiolytic effect (conflict model) (rhesus monkeys): anxiolytic
analgesic effect, mechanical sensitivity (von Frey) in CCI model ([1]; 10 mg/kg i.p.): significantly analgesic
analgesic effects in the chronic constriction injury model of neuropathic pain [1]: analgesic effects

CCOC(=O)c1ncn2c1CN=C(c1ccccc1)c1cc(Cl)ccc1-2
melting point: 174 to 175 °C

C[Si](C)(C)C#Cc1ccc2c(c1)C(c1ccccc1)=NCc1c(C(=O)OCC(F)(F)F)ncn1-2
melting point: 107 to 110 °C

CCOC(=O)c1ncn2c1CN=C(c1ccccn1)c1cc(C#C[Si](C)(C)C)ccc1-2
melting point: 205 to 206 °C

C#Cc1ccc2c(c1)C(c1ccccc1)=NCc1c(C(=O)OCC(F)(F)F)ncn1-2 [DM-II-20, Trifluoroethyl 8-acetylenyl-6-phenyl-4H-benzo[f]imidazo[1,5-a][1,4]diaze-pine-3-carboxylate]
melting point: 188 to 190 °C

O=C(OCC(Cl)(Cl)Cl)c1ncn2c1CN=C(c1ccccc1)c1cc(Br)ccc1-2
melting point: 113 to 116 °C

C#Cc1ccc2c(c1)C(c1cccs1)=NCc1c(C(=O)OCC)ncn1-2 [JC-221, Ethyl 8-acetyleno-6-(2′-thienyl)-4H-benzo[f]imidazo[1,5-a][1,4]diazepine-3-carboxylate]
Ki ([2]; Binding Affinity at GABAA/α5, Table 3): 14.5 nM

C#Cc1ccc2c(c1)C(c1ccccc1F)=NCc1c(C(=O)OCC)ncn1-2 [JY-XHE-053, 8-Acetyleno-6-(2′-fluorophenyl)-4H-benzo[f]imidazo[1,5-a][1,4]diazepine-3-carboxylate]
protection at the acute phase of chemically induced pain ([3]; formalin test, acute phase): insignificant
Change (% of Control) ± SEM, T22 Formalin Pain, Acute ([3]; mouse, i.p., acute phase, dose 16 (HZ-166), 10 (JY-XHE-053), 1 (XLI-JY-DMH) mg/kg): 98.41 % of Control
Change (% of Control) ± SEM, T22 Formalin Pain, inflammatory ([3]; mouse, i.p., inflammatory phase, dose 16 (HZ-166), 10 (JY-XHE-053), 1 (XLI-JY-DMH) mg/kg): 84.58 % of Control
Ki ([4]; Table 3, read-out: Binding Affinity at GABAA/α1): 0.022 µM
Ki ([5]; Table 3, read-out: Binding Affinity at GABAA/α3): 34.9 nM
Ki ([2]; Table 3, read-out: Binding Affinity at GABAA/α5): 0.671 nM
Ki ([6]; Table 3, read-out: Binding Affinity at GABAA/α2): 12.3 nM
dose at which anxiolytic (rhesus monkeys; intravenously): greater than 0.13 mg/kg
Change (% of Control) ± SEM, T23 Sciatic Ligation [7]: 132 ± 7 % of Control
Significance, T23 Sciatic Ligation [7]: yes
analgesic effect, mechanical sensitivity (von Frey) in CCI model ([1]; 8 mg/kg and 30 mg/kg i.p.): significant analgesic effect
analgesic effects in the chronic constriction injury model of neuropathic pain [1]: analgesic effects

CNC1=Nc2ccc(C#C[Si](C)(C)C)cc2C(c2ccccc2)=NC1
melting point: 210 to 211 °C

C#Cc1ccc2c(c1)C(c1ccccc1F)=NC(C)c1c(C(=O)OCC)ncn1-2 (single isomer, unassigned) [SH-053-2′F-R-CH3, 8-Ethynyl-6-(2-fluorophenyl)-4-methyl-4H-2,5,10b-triaza-benzo[e]azulene-3-carboxylic acid ethyl ester]
sedative activity (conflict model) (rhesus monkeys; intravenously): not sedating
anxiolytic effect (conflict model) (rhesus monkeys): only a weak anxiolytic

C#Cc1ccc2c(c1)C(c1ccccc1F)=NC(C)c1c(C(=O)OCC)ncn1-2 (single isomer, unassigned) [SH-053-2′F-S-CH3, 8-Ethynyl-6-(2-fluorophenyl)-4-methyl-4H-2,5,10b-triazabenzo[e]azulene-3-carboxylic acid ethyl ester]
no sedation up to dose (rhesus monkeys; conflict model): 10 to 18 mg/kg
anxiolytic effect (conflict model) (rhesus monkeys): anxiolytic

CCOC(=O)c1ncn2c1CN(C)C(=O)c1cc(F)ccc1-2 [Flumazenil, flumazenil, reference compound]
AUC of mechanical PWT, HZ166 followed by flumazenil ([1]; HZ166 16 mg/kg i.p., flumazenil 10 mg/kg i.p. 45 min later, n=6): 0.54 ± 0.25 g·h
effect on the antihyperalgesic effect of HZ166 ([1]; flumazenil 10 mg/kg i.p., HZ166 16 mg/kg): almost completely reversed

C#Cc1ccc2c(c1)C(c1ccccn1)=NC(C)c1c(C(=O)OCC)ncn1-2 (stereo not drawn) [SH-053-2′N-S-CH3, 8-Ethynyl-4-methyl-6-pyridin-2-yl-4H-2,5,10b-triaza-benzo[e]azulene-3-carboxylic acid ethyl ester]
Ki ([4]; Binding Affinity at GABAA/α1, Table 4, stereoisomers): 6.95 µM
Ki ([5]; Binding Affinity at GABAA/α3, Table 4, stereoisomers): 2650 nM
Ki ([2]; Binding Affinity at GABAA/α5, Table 4, stereoisomers): 744 nM
Ki ([6]; Binding Affinity at GABAA/α2, Table 4, stereoisomers): 2330 nM
